Common to all, as to format: cell-based
Test [1] concerns MEXF 1539 human tumor xenograft cells. In words: Oncotest tumor clonogenic assay, MEXF 1539. As to conditions: colony formation, Melanoma MEXF 1539, amelanotic melanoma, md, read-out: Absolute IC50.
For test [2], the system named is HNXF 536 human tumor xenograft cells. In words: Oncotest tumor clonogenic assay, HNXF 536. As to conditions: colony formation, Head and Neck HNXF 536, squamous epithelium carcinoma, wd, read-out: Absolute IC50.
In a further test the test system is HT-1080. In words: Cell proliferation assay (CellTiter-Glo), HT-1080. As to conditions: Homo sapiens, HT-1080, 72 h. How it is done:
(§1) Plate cells in a 96-well plate at 2000 cells/well in 100 μL of cell specific medium (for U87MG use DMEM, 10% FBS, 25 mM 4-(2-hydroxyethyl)-1-piperazineethanesulfonic acid (HEPES), 1.0 mM sodium pyruvate, and 0.1 mM Non Essential Amino Acids (ATCC Cat.#30-2002); for HT1080 use Eagle's MEM, 10% FBS (ATCC Cat.#30-2003); for H1975, A2780, SJSA-1 and 786-O use RPMI 1640, 10% FBS (ATCC Cat.#30-2001); for A204 use McCoy's 5A, 10% FBS (ATCC Cat.#30-2007) except in column 1 use medium only as the blank control. Incubate the plates overnight at 37° C. and 5% CO2. On the next day, prepare compound stocks at 1 mM in DMSO and serially dilute in DMSO in a 96-well round bottom polypropylene plate. Assay compounds at 10 concentrations in duplicate, 4 compounds per plate.
(§2) Transfer 4 μL of the DMSO serial dilutions to a 96 well plate and add 196 μL of culture medium to create a 10× stock for dosing. Gently transfer 11 μL of each dosing stock to the corresponding well of the cell plate resulting in a 0.2% DMSO concentration and a 111 μL final volume. […]
(§3) Prepared the CellTiter-Glo reagent (Promega, Cat: G7571) and add 100 µL to each well after the incubation is complete, homogenize the cells by mixing on an orbital shaker for 2 min and then incubate at RT for 10 min to allow the luminescent signal to stabilize. Record the luminescent raw data with a Wallac Victor V plate reader. […]

Test [3] concerns RXF 393 human tumor xenograft cells. The experiment in a line: Oncotest tumor clonogenic assay, RXF 393. The settings on record: colony formation, Renal RXF 393, hypernephroid carcinoma, pd, read-out: Absolute IC50.
Test [4] has as its system SXF 627 human tumor xenograft cells. In words: Oncotest tumor clonogenic assay, SXF 627. As to conditions: colony formation, Sarcoma SXF 627, pleomorphic rhabdomyosarcoma, pd, read-out: Absolute IC50.
The test system of test [5] is PXF 541 human tumor xenograft cells. The experiment in a line: Oncotest tumor clonogenic assay, PXF 541. The settings on record: colony formation, Pleuramesothelioma PXF 541, invasive pleuramesothelioma, read-out: Absolute IC50.
Test [6] concerns GXF 209 human tumor xenograft cells. The experiment in a line: Oncotest tumor clonogenic assay, GXF 209. The settings on record: colony formation, Gastric GXF 209, signet-ring cell carcinoma, ud, read-out: Absolute IC50.
For test [7], the system named is LXFA 983 human tumor xenograft cells. The experiment in a line: Oncotest tumor clonogenic assay, LXFA 983. As to conditions: colony formation, NSCLC LXFA 983, adeno carcinoma, pd, read-out: Absolute IC50.
Test [8] has as its system HNXF 908 human tumor xenograft cells. In words: Oncotest tumor clonogenic assay, HNXF 908. As to conditions: colony formation, Head and Neck HNXF 908, squamous epithelium carcinoma, md, read-out: Absolute IC50.
Test [9] deals with LXFA 1584 human tumor xenograft cells. In words: Oncotest tumor clonogenic assay, LXFA 1584. As to conditions: colony formation, NSCLC LXFA 1584, adeno carcinoma, pd, read-out: Absolute IC50.
Test [10] has as its system PXF 1752 human tumor xenograft cells. The experiment in a line: Oncotest tumor clonogenic assay, PXF 1752. As to conditions: colony formation, Pleuramesothelioma PXF 1752, pleuramesothelioma, read-out: Absolute IC50.
Test [11] deals with OVXF 899 human tumor xenograft cells. In words: Oncotest tumor clonogenic assay, OVXF 899. As to conditions: colony formation, Ovary OVXF 899, pap. serous adeno carcinoma, md, read-out: Absolute IC50.
Test [12] relates to MEXF 462 human tumor xenograft cells. In words: Oncotest tumor clonogenic assay, MEXF 462. The settings on record: colony formation, Melanoma MEXF 462, amelanotic melanoma, md, read-out: Absolute IC50.
The subject of another test is 786-O. In words: Cell proliferation assay (CellTiter-Glo), 786-O. As to conditions: Homo sapiens, 786-0, 72 h. How it is done: as §1, §2, §3
In general terms: In ATP-based viability assays light output follows the ATP content of the culture.

A word on the IC50: it is the point on the concentration scale where inhibition reaches its midpoint.

For the compound `CO[C@@H](C)Cn1c(=O)n(C)c2cnc3ccc(-c4cncc(C(C)(C)O)c4)cc3c21` [Example 1, 8-[5-(1-Hydroxy-1-methylethyl)pyridin-3-yl]-1-[(2S)-2-methoxypropyl]-3-methyl-1,3-dihydro-2H-imidazo[4,5-c]quinolin-2-one], the IC50 came out at 246 nM in test [1]; 55 nM in test [2]; 72 nM in the test with HT-1080; 44 nM in [3]; 95 nM in test [4]; 56 nM in test [5]. The IC50 in test [6] was found to be 184 nM; in [7], 103 nM; in test [8], 52 nM; in test [9] it was 85 nM; in [10] it was 32 nM; in test [11] it was 590 nM. The values for the IC50 (in [12]; with 786-O) were 156 nM and 126 nM, respectively.

The values are drawn from patent US8658668B2, “PI3 kinase/mTOR dual inhibitor” (Eli Lilly and Company, priority 2011, dated 2014).
